Tests used:
[1] = test system: murine mammary carcinoma 4T1 cells; assay: Antitumor activity as sonosensitizers (SDT) on tumor-bearing mice; format: in vivo; details: for Inhibitory rate (average ± SD, %) / Tumor weight (average ± SD, g): SDT 1.0 MHz, 3.0 W/cm^2, 3 min, 6 h after dosing, 7 days after SDT; for Body weight At the beginning / Body weight At the end: SDT, mice, in g (unit assumed)
Description: (§1) The murine mammary carcinoma cells (4T1 line) were subjected to adherent culture. After growing to a confluence of 70%-80%, the cells in the culture flask were routinely digested, centrifuged and counted, and then resuspended with 0.85% normal saline to a density of 1×10^7 cells/mL. The cell suspension was injected into the left lateral middle axillary subcutaneous part of […] Bal b/c healthy mice (female, aged 6-8 weeks) at 0.1 mL/mouse. When the tumor diameter, which was observed every other day, reached 0.6-0.8 cm, the mice with well-growing tumors and no ulcers on the epidermis were selected for grouped treatment.
Mice with similar body weight and uniform tumor size are selected and randomly divided into 6 groups with 6 mice for each group. 48 h after inoculation, the mice were subjected to drug administration separately from the tail vein by group.
[…] 6 h after drug administration, each group of mice was anesthetized by intraperitoneal injection with 0.2 mL of 1% pentobarbital sodium. Then the mice were fixed to allow the tumor growth site exposed. The SDT group was treated using an ultrasonic therapeutic apparatus at an impulse waveform of 1.0 MHz and power of 3.0 W/cm^2 for 3 min. 7 days after SDT, the animals were sacrificed. The tumor was stripped and weighed, and the body weight was recorded.

[2] = test system: murine mammary carcinoma 4T1 cells; assay: Antitumor activity as photosensitizers on tumor-bearing mice (one PDT treatment); format: in vivo; details: for Inhibitory rate (average ± SD, %) / Tumor weight (average ± SD, g): 660 nm, 75 Joule/cm^2 6 h after dosing, 7 days after PDT; for Body weight At the begining / Body weight At the end: one PDT treatment, mice, in g (unit assumed)
Description: as §1
(1) Mice with similar body weight and uniform tumor size are selected and randomly divided into 7 groups with 6 mice for each group. After inoculation for 48 h, the mice were subjected to drug administration separately from the tail vein by group.
6 h after the drug administration, the mice were fixed to expose the tumor growth site. Light irradiation was performed for 8 min, using PDT-660 photodynamic therapy equipment at a laser wavelength of 660 nm and a light dose of 75 Joule/cm^2. Then both of the mice growth and tumor growth are observed continuously. 7 days after photodynamic therapy, the animals were sacrificed. The tumor was stripped and weighed, and the body weight was recorded.

[3] = test system: human cervical cancer Hela cells; assay: Photosensitizer-mediated PDT, in vitro proliferation (MTT), Hela; format: cell-based; details: for cell viability (%): Hela
Outline: (§2)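 Cells at 70-80% confluence got compound at 1, 2, 5 or 10 μg/mL in the dark, then 660 nm light at 2, 4 or 8 J/cm^2; dark-only and untreated controls. MTT read 24 h later. Viability expressed as OD relative to untreated control ×100%.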

[4] = test system: human hepatocellular carcinoma huh-7 cells; assay: Photosensitizer-mediated PDT, in vitro proliferation (MTT), huh-7; format: cell-based
Outline: as §2

[5] = test system: murine mammary carcinoma 4T1 cells; assay: Antitumor activity as photosensitizers on tumor-bearing mice (two PDT treatments); format: in vivo
Description: as §1
(2) Mice with similar body weight and uniform tumor size are selected and randomly divided into 4 groups with 6 mice for each group. After inoculation of 4T1 cells and the tumor volume grows to 50˜80 mm^3, the mice were subjected to a first drug administration from the tail vein by group.
6 h after the drug administration, the mice were fixed to expose the tumor growth site. As a first PDT treatment, light irradiation was performed for 8 min, using PDT-660 photodynamic therapy equipment at the laser wavelength of 660 nm and the light dose of 150 Joule/cm^2. One week later, the second PDT treatment (the dosage and lighting conditions were the same as those of the first PDT treatment) was performed. The mice were sacrificed 14 days after the treatment. The tumor was removed, weighed and recorded.

[6] = 0.25 mg/kg tail vein, two PDT treatments one week apart, 660 nm, 150 Joule/cm^2, 14 days after treatment
[7] = 0.25 mg/kg, two PDT treatments, mice, in g (unit assumed)

## 3-hexoxymethyl-3-devinyl-chlorin e4 disodium salt [CEFO]
[1]; 2.5 mg/kg tail vein
  Inhibitory rate (average ± SD, %): 64.3 ± 4.3%
  Tumor weight (average ± SD, g): 0.061 ± 0.007 g
[1]; 2.5 mg/kg
  Body weight At the beginning: 20.4 ± 0.3
  Body weight At the end: 21.4 ± 0.3
[1]; 5 mg/kg tail vein
  Inhibitory rate (average ± SD, %): 84.2 ± 2.9%
  Tumor weight (average ± SD, g): 0.027 ± 0.004 g
[1]; 5 mg/kg
  Body weight At the beginning: 20.2 ± 0.2
  Body weight At the end: 21.3 ± 0.2
[2]; 0.2 mg/kg tail vein
  Inhibitory rate (average ± SD, %): 87.0 ± 3.1%
  Tumor weight (average ± SD, g): 0.021 ± 0.005 g
[2]; 0.2 mg/kg
  Body weight At the begining: 20.4 ± 0.3
  Body weight At the end: 21.5 ± 0.3
[2]; 0.4 mg/kg tail vein
  Inhibitory rate (average ± SD, %): 97.5 ± 0.4%
  Tumor weight (average ± SD, g): 0.004 ± 0.001 g
[2]; 0.4 mg/kg
  Body weight At the begining: 20.7 ± 0.4
  Body weight At the end: 21.8 ± 0.4
[3]; 1 μg/mL, 660 nm, 2 J/cm^2
  cell viability (%): 65 ± 3%
[3]; 1 μg/mL, 660 nm, 4 J/cm^2
  cell viability (%): 61 ± 3%
[3]; 1 μg/mL, 660 nm, 8 J/cm^2
  cell viability (%): 40 ± 2%
[3]; 1 μg/mL, no light
  cell viability (%): 101 ± 2%
[3]; 2 μg/mL, 660 nm, 2 J/cm^2
  cell viability (%): 54 ± 3%
[3]; 2 μg/mL, 660 nm, 4 J/cm^2
  cell viability (%): 45 ± 2%
[3]; 2 μg/mL, 660 nm, 8 J/cm^2
  cell viability (%): 25 ± 2%
[3]; 2 μg/mL, no light
  cell viability (%): 107 ± 2%
[3]; 5 μg/mL, 660 nm, 2 J/cm^2
  cell viability (%): 38 ± 2%
[3]; 5 μg/mL, 660 nm, 4 J/cm^2
  cell viability (%): 24 ± 3%
[3]; 5 μg/mL, 660 nm, 8 J/cm^2
  cell viability (%): 14 ± 4%
[3]; 5 μg/mL, no light
  cell viability (%): 109 ± 2%
[3]; 10 μg/mL, 660 nm, 2 J/cm^2
  cell viability (%): 25 ± 2%
[3]; 10 μg/mL, 660 nm, 4 J/cm^2
  cell viability (%): 4 ± 1%
[3]; 10 μg/mL, 660 nm, 8 J/cm^2
  cell viability (%): 3 ± 2%
[3]; 10 μg/mL, no light
  cell viability (%): 107 ± 2%
[3]; summary statement for Hela, huh-7 and 4T1 cells, no light
  toxicity to the cells when the drug is used alone without photodynamic treatment: will not lower the cell viability
[4]; 1 μg/mL, 660 nm, 2 J/cm^2
  cell viability (%): 63 ± 3%
[4]; 1 μg/mL, 660 nm, 4 J/cm^2
  cell viability (%): 60 ± 3%
[4]; 1 μg/mL, 660 nm, 8 J/cm^2
  cell viability (%): 53 ± 3%
[4]; 1 μg/mL, no light
  cell viability (%): 99 ± 2%
[4]; 2 μg/mL, 660 nm, 2 J/cm^2
  cell viability (%): 58 ± 1%
[4]; 2 μg/mL, 660 nm, 4 J/cm^2
  cell viability (%): 53 ± 3%
[4]; 2 μg/mL, 660 nm, 8 J/cm^2
  cell viability (%): 30 ± 2%
[4]; 2 μg/mL, no light
  cell viability (%): 99 ± 2%
[4]; 5 μg/mL, 660 nm, 2 J/cm^2
  cell viability (%): 39 ± 2%
[4]; 5 μg/mL, 660 nm, 4 J/cm^2
  cell viability (%): 24 ± 2%
[4]; 5 μg/mL, 660 nm, 8 J/cm^2
  cell viability (%): 27 ± 1%
[4]; 5 μg/mL, no light
  cell viability (%): 97 ± 3%
[4]; 10 μg/mL, 660 nm, 2 J/cm^2
  cell viability (%): 25 ± 2%
[4]; 10 μg/mL, 660 nm, 4 J/cm^2
  cell viability (%): 9 ± 1%
[4]; 10 μg/mL, 660 nm, 8 J/cm^2
  cell viability (%): 7 ± 1%
[4]; 10 μg/mL, no light
  cell viability (%): 93 ± 4%
[5]; [6]
  Inhibitory rate (average ± SD, %): 96.9 ± 3.1%
  Tumor weight (average ± SD, g): 0.029 ± 0.028 g
[5]; [7]
  Body weight At the beginning: 20.2 ± 0.2
  Body weight At the end: 22.2 ± 0.5
